Reference: patent US20090143279A1 (priority 2007, published 2009)
Where “and” joins values, the source holds several entries; their conditions need not be identical. Identical values can stand only once. Where a SMILES comes first, the peptide text is derived from it.

What follows are molecules tested on cytochrome c. Conditions: not given.
Assay type: cell-based, mouse

Row | SMILES | cyt c | cyt c (composite Z-score vs DMSO) | cyt c (composite Z-score vs DMSO mock-treated wells) | cyt c (composite Z-score)
1 | Oc1ccc2c3c1O[C@H]1[C@@H](O)CC[C@@]4(O)[C@@H](C2)N(CC2CCC2)CC[C@]314 [nalbuphine] | 0.276 | −0.613 | – | –
2 | C=CCN1CC[C@]23c4c5ccc(O)c4O[C@H]2C(=O)CC[C@@]3(O)[C@H]1C5 [naloxone] | 0.362 and 0.610 | – | – | –
3 | COc1ccc(CCC(=O)c2c(O)cc(O[C@@H]3O[C@H](CO)[C@@H](O)[C@H](O)[C@H]3O[C@@H]3O[C@@H](C)[C@H](O)[C@@H](O)[C@H]3O)cc2O)cc1O [neohesperidin dihydrochalcone] | 0.454 | – | – | –
4 | COc1ccc2c3c1O[C@H]1[C@@H](O)CC=C4[C@@H](C2)N(C)CC[C@]431 [neopine] | 0.421 | – | – | –
5 | O=C(O)c1cccnc1 [niacin] | – | 0.736 and 1.132 | – | –
6 | CC1CS(=O)(=O)CCN1/N=C/c1ccc([N+](=O)[O-])o1 (centres unmarked) [nifurtimox] | 0.004 | – | – | –
7 | COc1ccc(-c2cc(=O)c3c(OC)c(OC)c(OC)c(OC)c3o2)cc1OC [nobiletin] | 0.396 | – | – | –
8 | C#C[C@]1(O)CC[C@H]2[C@@H]3CCC4=CC(=O)CC[C@@H]4[C@H]3CC[C@@]21C [norethindrone] | 0.903 | – | 0.056 | –
9 | C#C[C@]1(O)CC[C@H]2[C@@H]3CCC4=C(CCC(=O)C4)[C@H]3CC[C@@]21C [norethynodrel] | −0.145 | – | −0.058 | –
10 | CNCCC=C1c2ccccc2CCc2ccccc21 [nortriptyline] | – | 0.157 and 0.136 | – | –
11 | CC1(C)CC[C@]2(C(=O)O)CC[C@]3(C)C(=CC[C@@H]4[C@@]5(C)CC[C@H](O)C(C)(C)[C@@H]5CC[C@]43C)[C@@H]2C1 [oleanolic acid] | 0.866 | – | – | –
12 | C=CCOc1ccccc1OCC(O)CNC(C)C (centres unmarked) [oxprenolol] | 0.047 | – | – | –
13 | CCN(CC)CC#CCOC(=O)C(O)(c1ccccc1)C1CCCCC1 (centres unmarked) [oxybutynin] | −0.352 | – | – | –
14 | COc1ccc(C(C)=O)c(O)c1 [paeonol] | 0.306 | – | – | –
15 | Oc1ccc(Cl)cc1 [parachlorophenol] | 0.036 | – | – | –
16 | [H]/N=C(/N)N/C(=N/[H])NCCc1ccccc1 [phenformin] | 0.241 | – | – | –
17 | CC(N)C(O)c1ccccc1 (centres unmarked) [phenylpropanolamine] | 0.947 | – | – | –
18 | CCC1(c2ccccc2)C(=O)NCNC1=O [primidone] | 0.296 and 0.193 | – | – | –
19 | CCC(=O)c1ccc2c(c1)N(CC(C)N(C)C)c1ccccc1S2 (centres unmarked) [propiomazine] | −0.368 | – | – | –
20 | CC(C)c1cccc(C(C)C)c1O [propofol] | – | 0.242 | – | –
21 | CCCc1cc(=O)[nH]c(=S)[nH]1 [propylthiouracil] | 0.762 and 0.717 | – | – | –
22 | CNCCCC1c2ccccc2C=Cc2ccccc21 [protriptyline] | – | – | – | −1.335

Row | SMILES | cyt c | cyt c (composite Z-score vs DMSO) | cyt c (composite Z-score vs DMSO mock-treated wells) | cyt c (composite Z-score)
23 | NC(=O)c1ncn([C@@H]2O[C@H](CO)[C@@H](O)[C@H]2O)n1 [ribavirin] | −0.336 | – | – | –
24 | CO[C@H]1/C=C/O[C@@]2(C)Oc3c(C)c(O)c4c(O)c(c(/C=N/N5CCN(C)CC5)c(O)c4c3C2=O)NC(=O)/C(C)=C\C=C\[C@H](C)[C@H](O)[C@@H](C)[C@@H](O)[C@@H](C)[C@H](OC(C)=O)[C@@H]1C [rifampicin] | 0.319 | – | – | –
25 | Cc1nc2n(c(=O)c1CCN1CCC(c3noc4cc(F)ccc34)CC1)CCCC2 [risperidone] | – | 0.243 | – | –
26 | CN(CCOc1ccc(CC2SC(=O)NC2=O)cc1)c1ccccn1 (centres unmarked) [rosiglitazone] | −0.121 | – | – | –
27 | O=C1NS(=O)(=O)c2ccccc21 [saccharin] | – | 0.336 | – | –
28 | CO[C@H]1C[C@H](O[C@@H]2/C(C)=C/C[C@@H]3C[C@@H](C[C@]4(CC[C@H](C)[C@@H](C5CCCCC5)O4)O3)OC(=O)[C@@H]3C=C(C)/C(=N/O)[C@H]4OC/C(=C\C=C\[C@@H]2C)[C@]43O)O[C@@H](C)[C@@H]1O [selamectin] | 0.343 | – | – | –
29 | COc1cc(C2Oc3cc([C@H]4Oc5cc(O)cc(O)c5C(=O)[C@@H]4O)ccc3OC2CO)ccc1O (some centres unmarked) [silybin] | 0.150 | – | – | –
30 | O=C([O-])c1ccccc1O.[Na+] [sodium salicylate] | 0.607 | – | – | –
31 | O=C1C[C@@H]2OCC=C3CN4CC[C@]56c7ccccc7N1[C@H]5[C@H]2[C@H]3C[C@H]46 [strychnine] | – | – | 0.031 | –
32 | Nc1c2c(nc3ccccc13)CCCC2 [tacrine] | – | −0.250 | – | –
33 | COc1cc2nc(N3CCN(C(=O)C4CCCO4)CC3)nc(N)c2cc1OC (centres unmarked) [terazosin] | – | −0.258 | – | –
34 | CC(C)(C)c1ccc(C(O)CCCN2CCC(C(O)(c3ccccc3)c3ccccc3)CC2)cc1 (centres unmarked) [terfenadine] | – | −0.611 | – | –
35 | C[C@]12CC[C@H]3[C@@H](CCC4=CC(=O)CC[C@@]43C)[C@@H]1CC[C@@H]2O [testosterone] | −0.787 | – | – | –
36 | c1ccc(C2CN3CCSC3=N2)cc1 (centres unmarked) [tetramisole] | 0.209 | – | – | –
37 | Cc1ncc(C[n+]2csc(CCO)c2C)c(N)n1 [thiamine] | – | – | – | 0.284
38 | Nc1nc2nc[nH]c2c(=S)[nH]1 [thioguanine] | – | −1.454 | – | –
39 | CCCC(C)C1(CC)C(=O)NC(=S)NC1=O (centres unmarked) [thiopental] | – | −0.299 | – | –
40 | CN1CCN(CC/C=C2/c3ccccc3Sc3ccc(S(=O)(=O)N(C)C)cc32)CC1 [thiothixene] | 0.307 | – | – | –
41 | Clc1ccccc1CN1CCc2sccc2C1 [ticlopidine] | – | −0.316 | – | –
42 | Cc1ccc(O)c([C@H](CCN(C(C)C)C(C)C)c2ccccc2)c1 [tolterodine] | −0.406 | – | – | –
43 | CCOC(=O)[C@H](CCc1ccccc1)N[C@@H](C)C(=O)N1[C@H](C(=O)O)C[C@H]2CCCC[C@@H]21 [trandolapril] | 0.039 | – | – | –

Same assay, conditions: composite Z-score vs mock-treated (DMSO) wells; concentration of each compound in μM

Row | SMILES | cyt c
44 | COc1ccccc1N1CCN(CC(O)COc2cccc3ccccc23)CC1 (centres unmarked) [naftopidil] | 0.382
45 | COC(=O)Nc1nc2ccc([S+]([O-])c3ccccc3)cc2[nH]1 (centres unmarked) [oxfendazole, reference compound] | −0.224
46 | O=CC=Cc1ccc(O)cc1 [p-hydroxycinnamaldehyde] | −0.079
47 | N[C@@H](Cc1ccccc1)C(=O)N[C@@H](Cc1ccc(O)cc1)C(=O)O [phenylalanyltyrosine] (H-Phe-Tyr-OH) | −0.342
48 | CCc1ccc(CCOc2ccc(CC3SC(=O)NC3=O)cc2)nc1 (centres unmarked) [pioglitazone] | −0.742
49 | CC[C@H](C)C(=O)O[C@H]1C[C@H](O)C=C2C=C[C@H](C)[C@H](CC[C@@H](O)C[C@@H](O)CC(=O)O)[C@H]21 [pravastatin, reference compound] | 0.972
50 | CCC(NC(C)C)C(O)c1ccc(O)c2[nH]c(=O)ccc12 (centres unmarked) [procaterol] | −0.168
51 | CC(O)Cn1cnc2c1c(=O)n(C)c(=O)n2C (centres unmarked) [proxyphylline] | −0.574
52 | CC(=O)SCC(Cc1ccccc1)C(=O)NCC(=O)OCc1ccccc1 (centres unmarked) [racecadotril] | −0.249
53 | O=C(NC(Cc1cc(=O)[nH]c2ccccc12)C(=O)O)c1ccc(Cl)cc1 (centres unmarked) [rebamipide] | −0.372
54 | CO[C@H]1/C=C/O[C@@]2(C)Oc3c(C)c(O)c4c(O)c(c5c(nc6cc(C)ccn65)c4c3C2=O)NC(=O)/C(C)=C\C=C\[C@H](C)[C@H](O)[C@@H](C)[C@@H](O)[C@@H](C)[C@H](OC(C)=O)[C@@H]1C [rifaximin] | −0.471
55 | CC(NCCc1ccc(O)cc1)C(O)c1ccc(O)cc1 (centres unmarked) [ritodrine] | −0.072
56 | C[C@@H]1O[C@@H](OC[C@H]2O[C@@H](Oc3c(-c4ccc(O)c(O)c4)oc4cc(O)cc(O)c4c3=O)[C@H](O)[C@@H](O)[C@@H]2O)[C@H](O)[C@H](O)[C@H]1O [rutoside] | −0.012
57 | O=C(O)c1cn(-c2ccc(F)cc2)c2cc(N3CCNCC3)c(F)cc2c1=O [sarafloxacin] | 0.290
58 | O=C1C=C2C=C[C@@H]3C[C@@]2(O1)[C@H]1CCCCN31 [securinine] | −0.481
59 | CC(C)CC(N(C)C)C1(c2ccc(Cl)cc2)CCC1 (centres unmarked) [sibutramine] | 0.351
60 | CC(C)NCC(O)c1ccc(NS(C)(=O)=O)cc1 (centres unmarked) [sotalol] | 0.501
61 | CC[C@H]1OC(=O)[C@H](C)C(=O)[C@H](C)[C@@H](O[C@@H]2O[C@H](C)C[C@H](N(C)C)[C@H]2O)[C@](C)(OC)C[C@@H](C)C(=O)[C@H](C)[C@H]2N(CCCCn3cnc(-c4cccnc4)c3)C(=O)O[C@]12C [telithromycin] | −0.023
62 | CCCc1nc2c(C)cc(-c3nc4ccccc4n3C)cc2n1Cc1ccc(-c2ccccc2C(=O)O)cc1 [telmisartan] | −0.044
63 | CC(C)N1CCN(c2ccc(OCC3COC(Cn4cncn4)(c4ccc(Cl)cc4Cl)O3)cc2)CC1 (centres unmarked) [terconazole] | 0.552
64 | COC(=O)C1=CO[C@@H](C)[C@@H]2CN3CCc4c([nH]c5ccccc45)[C@@H]3C[C@H]12 [tetrahydroalstonine] | 1.439
65 | COc1c(O[C@@H]2O[C@H](CO)[C@@H](O)[C@H](O)[C@H]2O)cc2c(c1OC)-c1ccc(SC)c(=O)cc1[C@@H](NC(C)=O)CC2 [thiocolchicoside] | 0.108
66 | C=C(NC(=O)C(=C)NC(=O)c1csc(C2=N[C@@H]3c4csc(n4)[C@H]4NC(=O)c5csc(n5)[C@H]([C@](C)(O)[C@@H](C)O)NC(=O)[C@H]5CSC(=N5)/C(=C/C)NC(=O)[C@H]([C@@H](C)O)NC(=O)c5csc(n5)[C@]3(CC2)NC(=O)[C@H](C)NC(=O)C(=C)NC(=O)[C@H](C)NC(=O)[C@H]([C@@H](C)CC)N[C@@H]2C=Cc3c([C@H](C)O)cc(nc3[C@H]2O)C(=O)O[C@@H]4C)n1)C(N)=O [thiostrepton] | −1.134
67 | CC1(C)O[C@@H]2[C@@H](CO[C@@]3(COS(N)(=O)=O)OC(C)(C)O[C@@H]23)O1 [topiramate] | −0.093

Same assay, conditions: normalized score (composite Z-score vs DMSO mock-treated wells); compound concentration (μM)

Row | SMILES | cyt c
68 | CCN[C@@H]1C[C@H](N)[C@@H](O[C@H]2OC(CN)=CC[C@H]2N)[C@H](O)[C@H]1O[C@H]1OC[C@](C)(O)[C@H](NC)[C@H]1O [netilmicin] | 0.156
69 | CC(C)(C)NC[C@H](O)COc1ccccc1C1CCCC1 [penbutolol] | 0.099
70 | CCOC(=O)Oc1c(OC)cc(C(=O)O[C@@H]2C[C@@H]3CN4CCc5c([nH]c6cc(OC)ccc56)[C@H]4C[C@@H]3[C@H](C(=O)OC)[C@H]2OC)cc1OC [syrosingopine] | 1.051
71 | CC(C(=O)O)c1ccc(C(=O)c2ccccc2)s1 (centres unmarked) [tiaprofenic acid] | 0.644
